Reference: the NIST ThermoML archive (doi:10.1016/j.tca.2012.06.011)
± gives the expanded uncertainty stated by the source.

Assay: xn = mol fraction of the nth substance listed
Conditions: 101 kPa, Liquid; for viscosity: Capillary tube (Ostwald / Ubbelohde) method; for mass density: Vibrating tube method

CN1CCNCC1 [N-methylpiperazine] + C1C[C@@H]2[C@H]3CC[C@H](C3)[C@@H]2C1
Conditions	mass density, 298.15 K [kg/m3]	mass density, 303.15 K [kg/m3]	mass density, 308.15 K [kg/m3]	mass density, 313.15 K [kg/m3]	mass density, 323.15 K [kg/m3]	viscosity, 298.15 K [mPa·s]	viscosity, 303.15 K [mPa·s]	viscosity, 308.15 K [mPa·s]	viscosity, 313.15 K [mPa·s]	viscosity, 323.15 K [mPa·s]
x1 = 0.1337	925.63 ± 0.59	921.65 ± 0.59	917.65 ± 0.59	913.66 ± 0.58	905.68 ± 0.58	2.432 ± 0.036	2.214 ± 0.033	2.021 ± 0.03	1.844 ± 0.027	1.574 ± 0.023
x1 = 0.2543	920.97 ± 0.47	916.91 ± 0.46	912.83 ± 0.46	908.76 ± 0.46	900.62 ± 0.46	2.247 ± 0.032	2.051 ± 0.029	1.868 ± 0.027	1.694 ± 0.024	1.452 ± 0.021
x1 = 0.3678	916.92 ± 0.37	912.79 ± 0.36	908.63 ± 0.36	904.48 ± 0.36	896.19 ± 0.36	2.125 ± 0.029	1.925 ± 0.026	1.752 ± 0.024	1.583 ± 0.021	1.351 ± 0.018
x1 = 0.4768	913.25 ± 0.28	909.05 ± 0.28	904.83 ± 0.28	900.62 ± 0.28	892.2 ± 0.28	2.016 ± 0.027	1.822 ± 0.024	1.655 ± 0.022	1.492 ± 0.02	1.281 ± 0.017
x1 = 0.577	910.05 ± 0.23	905.8 ± 0.23	901.53 ± 0.23	897.26 ± 0.23	888.74 ± 0.23	1.943 ± 0.025	1.756 ± 0.023	1.583 ± 0.021	1.435 ± 0.018	1.237 ± 0.016
x1 = 0.672	907.32 ± 0.19	903.04 ± 0.19	898.72 ± 0.19	894.4 ± 0.19	885.79 ± 0.19	1.921 ± 0.024	1.708 ± 0.022	1.545 ± 0.02	1.399 ± 0.017	1.195 ± 0.015
x1 = 0.76	904.59 ± 0.16	900.27 ± 0.16	895.93 ± 0.16	891.58 ± 0.16	882.9 ± 0.17	1.893 ± 0.024	1.681 ± 0.021	1.512 ± 0.019	1.362 ± 0.017	1.162 ± 0.014
x1 = 0.8407	902.15 ± 0.15	897.92 ± 0.15	893.59 ± 0.15	889.24 ± 0.15	880.55 ± 0.15	1.894 ± 0.024	1.656 ± 0.021	1.502 ± 0.018	1.35 ± 0.016	1.154 ± 0.014
x1 = 0.9242	900.27 ± 0.13	895.92 ± 0.14	891.51 ± 0.14	887.11 ± 0.14	878.34 ± 0.14	1.877 ± 0.024	1.632 ± 0.02	1.467 ± 0.018	1.318 ± 0.016	1.116 ± 0.014
x1 = 1	899.28 ± 0.13	894.9 ± 0.13	890.5 ± 0.13	886.07 ± 0.13	877.28 ± 0.13	1.854 ± 0.024	1.583 ± 0.02	1.409 ± 0.017	1.258 ± 0.015	1.064 ± 0.013

C1C[C@@H]2[C@H]3CC[C@H](C3)[C@@H]2C1 [exo-tetrahydrodicyclopentadiene] + CCN(CC)CC
Conditions	mass density, 298.15 K [kg/m3]	mass density, 303.15 K [kg/m3]	mass density, 308.15 K [kg/m3]	mass density, 313.15 K [kg/m3]	mass density, 323.15 K [kg/m3]	viscosity, 298.15 K [mPa·s]	viscosity, 303.15 K [mPa·s]	viscosity, 308.15 K [mPa·s]	viscosity, 313.15 K [mPa·s]	viscosity, 323.15 K [mPa·s]
x2 = 0	931.29 ± 0.76	927.38 ± 0.75	923.46 ± 0.75	919.54 ± 0.75	911.7 ± 0.74	2.8 ± 0.043	2.549 ± 0.039	2.332 ± 0.036	2.124 ± 0.033	1.811 ± 0.028
x2 = 0.1347	906.47 ± 0.64	902.17 ± 0.64	898.15 ± 0.64	894.12 ± 0.63	885.86 ± 0.63	2.034 ± 0.031	1.871 ± 0.028	1.714 ± 0.026	1.57 ± 0.024	1.36 ± 0.02
x2 = 0.2521	883.66 ± 0.56	879.54 ± 0.56	875.44 ± 0.55	871.32 ± 0.55	863.09 ± 0.54	1.535 ± 0.023	1.421 ± 0.021	1.324 ± 0.019	1.217 ± 0.018	1.063 ± 0.016
x2 = 0.365	861.16 ± 0.49	856.98 ± 0.49	852.8 ± 0.48	848.59 ± 0.48	840.22 ± 0.48	1.188 ± 0.017	1.109 ± 0.016	1.035 ± 0.015	0.955 ± 0.014	0.842 ± 0.012
x2 = 0.4709	839.56 ± 0.44	835.31 ± 0.43	831.04 ± 0.43	826.75 ± 0.43	818.22 ± 0.43	0.961 ± 0.014	0.893 ± 0.013	0.829 ± 0.012	0.77 ± 0.011	0.69 ± 0.01
x2 = 0.5711	818.66 ± 0.39	814.33 ± 0.39	809.98 ± 0.39	805.62 ± 0.38	796.93 ± 0.38	0.779 ± 0.011	0.738 ± 0.01	0.691 ± 0.01	0.649 ± 0.009	0.578 ± 0.008
x2 = 0.6683	798.2 ± 0.34	793.7 ± 0.34	789.27 ± 0.34	784.85 ± 0.34	775.97 ± 0.34	0.653 ± 0.009	0.618 ± 0.008	0.583 ± 0.008	0.547 ± 0.008	0.492 ± 0.007
x2 = 0.7585	778.5 ± 0.31	773.97 ± 0.31	769.46 ± 0.31	764.95 ± 0.31	755.83 ± 0.31	0.55 ± 0.007	0.524 ± 0.007	0.503 ± 0.007	0.463 ± 0.006	0.431 ± 0.006
x2 = 0.8414	759.95 ± 0.28	755.41 ± 0.28	750.85 ± 0.28	746.25 ± 0.28	737.14 ± 0.28	0.476 ± 0.006	0.455 ± 0.006	0.433 ± 0.006	0.406 ± 0.006	0.373 ± 0.005
x2 = 0.9136	743.67 ± 0.26	739.07 ± 0.26	734.45 ± 0.27	729.79 ± 0.27	720.56 ± 0.27	0.419 ± 0.006	0.399 ± 0.005	0.38 ± 0.005	0.368 ± 0.005	0.327 ± 0.004
